Tested on: wild-type HSV-1 McIntyre strain
Assay: Antiviral assay (plaque reduction) in Vero cells
Type: cell-based, herpes simplex virus-1 (HSV-1)
Settings: 50-1000 μg/ml; 80 PFU; 48 hours
Protocol: Antiviral assay: The virus used was the wild-type HSV-1 McIntyre strain. For the inhibition experiments, 7×10^4 Vero cells/well were grown in 24 well plates.
Cell monolayers were infected with HSV-1 in the presence or absence of the nanoparticles, as described in the antiviral assay in the Experimental, and observed for the presence of plaques after 48 hours. Plaque formation was obtained by the addition of γ-globulins, which prevents virus dissemination while retaining cell-to-cell spread. FIG. 3A (panels a-h) show images of the cell cultures after 48 hours.

With `O=S(=O)([O-])CCS.[Na+]` [soluble MES, sodium 2-mercaptoethanesulfonate] the “inhibition of virus infection (number of plaques and average size)” value was “completely ineffective”.

From patent US8758777B2, “Pharmaceutical compositions comprising water-soluble sulfonate-protected nanoparticles and uses thereof” (Bar-Ilan University, priority 2010, dated 2014)
